Measurements: patent US20140024638A1, “TREATMENT OF COGNITIVE DYSFUNCTION IN SCHIZOPHRENIA” (TARGACEPT, INC., priority 2011, published 2014)
“Also recorded” adds a separate entry of the source.

Columns and labels:
[1] = tested on: patients with schizophrenia; experiment: Phase 2 clinical proof of concept trial, overall efficacy; type: in vivo, human; settings: Phase 2 trial
Method: (§1) The double blind, placebo controlled Phase 2 trial was conducted at 7 sites in the United States and 12 sites in India. […] Of the randomized patients, approximately 69% were male and approximately 46% were users of tobacco products. […] The primary efficacy outcome measure was GMLT, and the trial included a number of other scales as secondary efficacy outcome measures.
The GMLT is a computerized test designed to assess executive function (the ability to organize cognitive processes, including the ability to plan, prioritize, stop and start activities, shift from one activity to another activity and to monitor one's own behavior). Impaired executive function is thought to be an important aspect of cognitive dysfunction in schizophrenia.

[2] = tested on: patients with schizophrenia; experiment: CogState 1-Card Learning task (visual learning), Phase 2 trial; type: in vivo, human; settings: for CogState 1-Card Learning: Mean (SE): tobacco users meeting data integrity criteria; for CogState 1-Card Learning: Mean (SEM): total population, subjects meeting data integrity criteria
Method: as §1

[3] = tested on: patients with schizophrenia; experiment: Phase 2 trial, safety and tolerability; type: in vivo, human
Method: as §1

[4] = tested on: patients with schizophrenia; experiment: CogState Identification task (attention), Phase 2 trial; type: in vivo, human; settings: for CogState Identification: Mean (SE): tobacco users meeting data integrity criteria; for CogState Identification: Mean (SEM): total population, subjects meeting data integrity criteria
Method: as §1

[5] = in vivo; cited from earlier work
[6] = water solubility (salt screening); type: physicochemical
[7] = tested on: patients with schizophrenia; experiment: Clinical Global Impression - Severity (CGI-S), Phase 2 trial; type: in vivo, human; settings: for CGI-SEVERITY: Adjusted Mean / CGI-SEVERITY: Mean Difference ± SE between TC-5619 and Placebo (Placebo-TC5619): All Patients; for CGI-S: Mean (SE): tobacco users; for CGI-S: Mean (SEM): total population
Method: as §1

Compound: O=C(N[C@@H]1C2CCN(CC2)[C@H]1Cc1cccnc1)c1cc2ccccc2o1 (single isomer, unassigned) [TC-5619]
- efficacy by tobacco use [1]: showed efficacy primarily in tobacco users
- efficacy in Cognitive Deficits in Schizophrenia (GMLT, SANS, CGI-Global, SGI-Cog, CogState objective cognitive endpoints) ([1]; add-on to quetiapine or risperidone, 12 weeks, 1/5/25 mg daily): positive efficacy
- CogState 1-card learning (visual learning), result in words ([2]; in vivo): statistically significant results of improvement
- CogState 1-Card Learning: Mean (SE) ([2]; Week 4, 1 mg daily, 1-tailed p = 0.615): −0.008 (0.027); p = 0.615
- CogState 1-Card Learning: Mean (SE) ([2]; Week 8, 5 mg daily, 1-tailed p = 0.778): −0.021; 0.028); p = 0.778
- CogState 1-Card Learning: Mean (SE) ([2]; Week 12, 25 mg daily, 1-tailed p = 0.338): 0.012 (0.028); p = 0.338
- CogState 1-Card Learning: Mean (SEM) ([2]; Week 4, 1 mg daily, 1-tailed P = 0.660): −0.008 (0.019); P = 0.660 ^
- CogState 1-Card Learning: Mean (SEM) ([2]; Week 8, 5 mg daily, 1-tailed P = 0.899): −0.024 (0.019); P = 0.899 ^
- CogState 1-Card Learning: Mean (SEM) ([2]; Week 12, 25 mg daily, 1-tailed P = 0.841): −0.019 (0.020); P = 0.841 ^
- discontinuations due to adverse events, difference to placebo dose group ([3]; Phase 2 trial): no clinically significant difference
- tolerability ([3]; Phase 2 trial, 12 weeks, 1/5/25 mg daily, listed as (2S,3R)—N-(2-((3-pyridinyl)methyl)-1-azabicyclo[2.2.2]oct-3-yl)benzofuran-2-carb): well tolerated; also recorded: favorable tolerability profile
- serious adverse events in the dose group ([3]; one also in placebo dose group, considered by the investigator as not drug related): one
- nausea (most frequent adverse event more common than in placebo cohort) ([3]; placebo 0%, mild to moderate in severity, never led to patient dropout): 5%
- CogState identification (attention), result in words ([4]; in vivo): statistically significant results of improvement
- CogState Identification: Mean (SE) ([4]; Week 4, 1 mg daily, 1-tailed p = 0.097): −0.021 (0.016); p = 0.097
- CogState Identification: Mean (SE) ([4]; Week 8, 5 mg daily, 1-tailed p = 0.261): −0.011 (0.017); p = 0.261
- CogState Identification: Mean (SE) ([4]; Week 12, 25 mg daily, 1-tailed p = 0.057): −0.026 (0.016); p = 0.057
- CogState Identification: Mean (SEM) ([4]; Week 4, 1 mg daily, 1-tailed p = 0.311): −0.005 (0.011); p = 0.311
- CogState Identification: Mean (SEM) ([4]; Week 8, 5 mg daily, 1-tailed p = 0.111): −0.014 (0.012); p = 0.111
- CogState Identification: Mean (SEM) ([4]; Week 12, 25 mg daily, 1-tailed p = 0.063): −0.017 (0.011); p = 0.063
- efficacy in preclinical models of memory [5]: had efficacy
- water solubility [6]: very limited
- CGI-SEVERITY: Adjusted Mean ([7]; Week 1, 1 mg daily, SE 0.03, placebo −0.05): −0.03
- CGI-SEVERITY: Mean Difference ± SE between TC-5619 and Placebo (Placebo-TC5619) ([7]; Week 1, 1 mg daily, one-sided 90% CI (−0.07, ∞), one-sided P 0.7588): −0.02 ± 0.03
- CGI-SEVERITY: Adjusted Mean ([7]; Week 4, 1 mg daily, SE 0.05, placebo −0.09): −0.06
- CGI-SEVERITY: Mean Difference ± SE between TC-5619 and Placebo (Placebo-TC5619) ([7]; Week 4, 1 mg daily, one-sided 90% CI (−0.10, ∞), one-sided P 0.6737): −0.02 ± 0.06
- CGI-SEVERITY: Adjusted Mean ([7]; Week 8, 5 mg daily, SE 0.05, placebo −0.24): −0.23
- CGI-SEVERITY: Mean Difference ± SE between TC-5619 and Placebo (Placebo-TC5619) ([7]; Week 8, 5 mg daily, one-sided 90% CI (−0.09, ∞), one-sided P 0.5440): −0.01 ± 0.06
- CGI-SEVERITY: Adjusted Mean ([7]; Week 12, 25 mg daily, SE 0.07, placebo −0.29): −0.31
- CGI-SEVERITY: Mean Difference ± SE between TC-5619 and Placebo (Placebo-TC5619) ([7]; Week 12, 25 mg daily, one-sided 90% CI (−0.11, ∞), one-sided P 0.4495): 0.01 ± 0.09
- Clinical Global Impression - Severity, result in words ([7]; secondary outcome measure): did not demonstrate a drug effect
- CGI-S: Mean (SE) ([7]; Week 4, 1 mg daily, 1-tailed p = 0.434): 0.02 (0.09); p = 0.434
- CGI-S: Mean (SE) ([7]; Week 8, 5 mg daily, 1-tailed p = 0.224): 0.08 (0.10); p = 0.224
- CGI-S: Mean (SE) ([7]; Week 12, 25 mg daily, 1-tailed p = 0.308): 0.07 (0.14); p = 0.308
- CGI-S: Mean (SEM) ([7]; Week 4, 1 mg daily, 1-tailed p = 0.674): −0.02 (0.06); p = 0.674
- CGI-S: Mean (SEM) ([7]; Week 8, 5 mg daily, 1-tailed p = 0.544): −0.01 (0.06); p = 0.544
- CGI-S: Mean (SEM) ([7]; Week 12, 25 mg daily, 1-tailed p = 0.450): 0.01 (0.09); p = 0.450
